Measured values as given in patent US10654845B2, “2-(het)aryl-substituted fused bicyclic heterocycle derivatives as pesticides” (BAYER CROPSCIENCE AKTIENGESELLSCHAFT, priority 2015, dated 2020).

Experiments:
[1] = log P by HPLC on reversed-phase column (C18), EEC Directive 79/831 Annex V.A8; settings: for chromatographic logP: reversed-phase HPLC column (C18)
Source text: Called log P (HCOOH) in the table.
Called log P (neutral) in the table.

Phaedon cochleariae = Phaedon cochleariae spray test; format: in vivo; settings: 500 g/ha, after 7 days, beetle larvae killed; for pest or weed control at 500 g/ha: Phaedon cochleariae, 168 h, read-out: efficacy in %
Protocol: Phaedon cochleariae-Spray Test
(§1) Solvent: 78.0 parts by weight of acetone
(§2) • 1.5 parts by weight of dimethylformamide Emulsifier: alkylaryl polyglycol ether
(§3) To produce a suitable preparation of active compound, 1 part by weight of active compound is dissolved using the stated parts by weight of solvent and made up with water containing an emulsifier concentration of 1000 ppm until the desired concentration is attained. To produce further test concentrations, the preparation is diluted with emulsifier-containing water.
After 7 days, the efficacy in % is determined. 100% means that all the beetle larvae have been killed; 0% means that no beetle larvae have been killed.

Myzus persicae [2] = test: Myzus persicae spray test (Chinese cabbage leaf discs); format: in vivo; settings: 500 g/ha, after 6 days, aphids killed; for pest or weed control at 500 g/ha: Myzus persicae, foliar, 144 h, read-out: efficacy in %
Protocol: (§4) Myzus persicae Spray Test
Solvent: 78 parts by weight of acetone
as §2, §3
Discs of Chinese cabbage leaves (Brassica pekinensis) infested by all stages of the green peach aphid (Myzus persicae) are sprayed with an active compound preparation of the desired concentration.
After 6 days, the efficacy in % is determined. 100% means that all the aphids have been killed; 0% means that no aphids have been killed.

Ctenocephalides felis = Ctenocephalides felis oral test; format: in vivo; settings: 100 ppm, after 2 days
Protocol: Ctenocephalides felis-Oral Test
(§5) Solvent: dimethyl sulphoxide
To produce a suitable preparation of active compound, 10 mg of active compound are mixed with 0.5 ml of dimethyl sulphoxide. Dilution with citrated cattle blood gives the desired concentration.
About 20 unfed adult cat fleas (Ctenocephalides felis) are placed into a chamber which is closed at the top and bottom with gauze. A metal cylinder whose bottom end is closed with parafilm is placed onto the chamber. The cylinder contains the blood/active compound preparation, which can be imbibed by the fleas through the parafilm membrane.
After 2 days, the kill in % is determined. 100% means that all of the fleas have been killed; 0% means that none of the fleas have been killed.

Lucilia cuprina = Lucilia cuprina test; format: in vivo; settings: 100 ppm, after 2 days, L1 larvae
Protocol: as §5
(§6) To produce a suitable preparation of active compound, 10 mg of active compound are mixed with 0.5 ml of dimethyl sulphoxide, and the concentrate is diluted with water to the desired concentration.
About 20 L1 larvae of the Australian sheep blowfly (Lucilia cuprina) are transferred into a test vessel containing minced horsemeat and the active compound preparation of the desired concentration.
After 2 days, the kill in % is determined. 100% means that all the larvae have been killed; 0% means that no larvae have been killed.

Musca domestica = Musca domestica test; format: in vivo; settings: 100 ppm, after 2 days, adult houseflies
Protocol: as §5, §6
Vessels containing a sponge treated with sugar solution and the active compound preparation of the desired concentration are populated with 10 adult houseflies (Musca domestica).
After 2 days, the kill in % is determined. 100% means that all of the flies have been killed; 0% means that none of the flies have been killed.

Spodoptera frugiperda = Spodoptera frugiperda spray test; format: in vivo; settings: 500 g/ha, after 7 days, caterpillars killed
Protocol: Spodoptera frugiperda-Spray Test Solvent: 78.0 parts by weight of acetone • • 1.5 parts by weight of dimethylformamide Emulsifier: alkylaryl polyglycol ether […] To produce further test concentrations, the preparation is diluted with emulsifier-containing water. Leaf disks of maize (Zea mays) are sprayed with an active compound preparation of the desired concentration and, after drying, populated with caterpillars of the armyworm (Spodoptera frugiperda).

Meloidogyne incognita = Meloidogyne incognita test; format: in vivo; settings: 20 ppm, after 14 days, formation of galls
Protocol: Meloidogyne incognita-Test
Solvent: 125.0 parts by weight of acetone
To produce a suitable preparation of active compound, 1 part by weight of active compound is mixed with the stated amount of solvent and the concentrate is diluted with water to the desired concentration.
Vessels are filled with sand, active compound solution, an egg/larvae suspension of the southern root-knot nematode (Meloidogyne incognita) and lettuce seeds. The lettuce seeds germinate and the plants develop. The galls develop on the roots.
After 14 days, the nematicidal efficacy in % is determined by the formation of galls. 100% means that no galls were found; 0% means that the number of galls on the treated plants corresponds to the untreated control.

Boophilus microplus = Boophilus microplus injection test; format: in vivo; settings: 20 μg/animal, assessed after 7 days
Protocol: Boophilus microplus-Injection Test
as §5
To produce a suitable preparation of active compound, 10 mg of active compound are mixed with 0.5 ml of solvent and the concentrate is diluted with solvent to the desired concentration.
1 μl of the active compound solution is injected into the abdomen of 5 engorged adult female cattle ticks (Boophilus microplus). The animals are transferred into dishes and kept in a climate-controlled room.
Efficacy is assessed after 7 days by laying of fertile eggs. Eggs which are not visibly fertile are stored in a climate-controlled cabinet until the larvae hatch after about 42 days. An efficacy of 100% means that none of the ticks has laid any fertile eggs; 0% means that all the eggs are fertile.

[3] = tested on: Anopheles gambiae strain RSPH (homozygot kdr); test: Anopheles test (ANPHGB surface treatment); format: in vivo; settings: 24 hours after contact
Protocol: Anopheles Test (ANPHGB Surface Treatment)
(§7) Solvent: acetone+2000 ppm rapeseed oil methyl ester (RME)
(§8) To produce an appropriate active compound formulation, the active compound is dissolved in the solvent (2 mg/ml). The active compound formulation is pipetted onto a glazed tile and, after it has dried off, adult mosquitoes of the species Anopheles gambiae strain RSPH (homozygot kdr) are placed onto the treated tile. The exposure time is 30 minutes.
(§9) 24 hours after contact with the treated surface, mortality in % is determined. 100% means that all mosquitoes have been killed; 0% means that none of the mosquitoes have been killed.

[4] = tested on: Anopheles funestus strain FUMOZ-R; test: whole plant or invertebrate; format: in vivo; settings: read-out: mortality in %
Protocol: Anopheles Test (ANPHFU Surface Treatment)
as §7
as §8, with “funestus” for “gambiae”, “FUMOZ-R (Hunt et al., Med Vet Entomol. 2005 September; 19(3):271-5)” for “RSPH (homozygot kdr)”
as §9

[5] = tested on: Aedes aegypti strain MONHEIM; test: whole plant or invertebrate; format: in vivo; settings: read-out: mortality in %
Protocol: Aedes Test (AEDSAE Surface Treatment)
as §7
as §8, with “Aedes aegypti” for “Anopheles gambiae”, “MONHEIM” for “RSPH (homozygot kdr)”
as §9

Myzus persicae [6] = test: Myzus persicae spray test (bell pepper plants); format: in vivo; settings: 100 ppm, after 6 days
Protocol: as §4
Solvent: 7 parts by weight of dimethylformamide
Emulsifier: alkylaryl polyglycol ether
as §3, with “water. If the addition of ammonium salts or/and penetrants is required, these are each added in a concentration of 1000 ppm to the formulation solution.” for “water.”
Bell pepper plants (Capsicum annuum) severely infested with the green peach aphid (Myzus persicae) are treated by spraying with the active compound preparation in the desired concentration.
After 6 days, the kill in % is determined. 100% means that all of the aphids have been killed; 0% means that none of the aphids have been killed.

Tetranychus urticae = Tetranychus urticae spray test, OP-resistant; format: in vivo; settings: 500 g/ha, after 6 days, spider mites killed
Protocol: Tetranychus urticae-Spray Test, OP-Resistant
as §1, §2, §3
Discs of bean leaves (Phaseolus vulgaris) infested with all stages of the greenhouse red spider mite (Tetranychus urticae) are sprayed with an active compound preparation of the desired concentration.
After 6 days, the efficacy in % is determined. 100% means that all the spider mites have been killed; 0% means that no spider mites have been killed.

[7] = pH 2.7, logP-acidic, LC-MS acidic range, pH 2.7 (HCOOH), C18, 55° C.
[8] = pH 7.8, log P (neutral), preparation examples, neutral range, pH 7.8
[9] = pH 7.8, logP-neutral, LC-MS neutral range, pH 7.8, C18, 55° C.
[10] = LC-MS acidic range, pH 2.7 (HCOOH), C18, 55° C.
[11] = LC-MS neutral range, pH 7.8, C18, 55° C.

Structure (SMILES) | logP-acidic ([1]; pH 2.7) | logP-neutral ([1]; pH 7.8) | efficacy in % (Phaedon cochleariae) | efficacy in % (Myzus persicae [2]) | efficacy in % (Spodoptera frugiperda) | nematicidal efficacy in % (Meloidogyne incognita) | logP-acidic [1, 10] | efficacy in % (Tetranychus urticae) | other results
CCS(=O)(=O)c1ccc(NC(=O)C(F)(F)C(F)F)nc1-c1nc2cc(C(F)(F)F)ncc2n1C [Example 8] | 2.80 | 2.12 | 100% | 90% | – | – | – | – | kill in % (Ctenocephalides felis): 100%; kill in % (Lucilia cuprina): 100%; kill in % (Musca domestica): 100%
CCOc1ccc(S(=O)(=O)CC)c(-c2nc3cc(C(F)(F)F)ncc3n2C)n1 [Example 10, 2-[6-Ethoxy-3-(ethylsulphonyl)pyridin-2-yl]-3-methyl-6-(trifluoromethyl)-3H-imidazo[4,5-c]pyridine] | – | – | – | – | 83% | – | – | – | chromatographic logP [1, 7]: 2.94; chromatographic logP [1, 8]: 2.86; chromatographic logP [1, 9]: 2.86; pest or weed control at 500 g/ha (Phaedon cochleariae): 100%; pest or weed control at 500 g/ha (Myzus persicae [2]): 90%; kill in % (Lucilia cuprina): 100%; kill in % (Musca domestica): 90%
CCS(=O)(=O)c1ccc(N)nc1-c1nc2cc(C(F)(F)F)ncc2n1C [Example 14, 5-(Ethylsulphonyl)-6-[3-methyl-6-(trifluoromethyl)-3H-imidazo[4,5-c]pyridin-2-yl]pyridine-2-amine] | – | – | – | – | – | 90% | – | – | chromatographic logP [1, 7]: 1.63; chromatographic logP [1, 8]: 1.62; chromatographic logP [1, 9]: 1.62; pest or weed control at 500 g/ha (Phaedon cochleariae): 100%; pest or weed control at 500 g/ha (Myzus persicae [2]): 90%; efficacy (laying of fertile eggs) (Boophilus microplus): 80%; kill in % (Ctenocephalides felis): 100%; kill in % (Lucilia cuprina): 100%; mortality at 20 mg/m2 ([3]; 20 mg/m^2, 30 minutes exposure): 80 to 100%; mortality at 100 mg/m2 ([3]; 100 mg/m^2, 30 minutes exposure): 80 to 100%; mortality at 20 mg/m2 [4]: 80 to 100%; mortality at 100 mg/m2 [4]: 80 to 100%; mortality at 20 mg/m2 [5]: 80 to 100%; mortality at 100 mg/m2 [5]: 80 to 100%
CCS(=O)(=O)c1ccc(OC(C)C)nc1-c1nc2cc(C(F)(F)F)ncc2n1C [Example 18] | 3.31 | 3.22 | – | – | – | 90% | – | – | –
CCS(=O)(=O)c1ccc(NC(=O)COC)nc1-c1nc2cc(C(F)(F)F)ncc2n1C [Example 21] | 2.22 | 2.17 | 100% | 90% | 100% | – | – | – | –
CCS(=O)(=O)c1ccc(SC(C)C)nc1-c1nc2cc(C(F)(F)F)ncc2n1C [Example 29] | – | – | – | – | – | 90% | 3.62 | – | logP-neutral [1, 11]: 3.53
CCS(=O)(=O)c1ccc(/C=C/C2CC2)nc1-c1nc2cc(C(F)(F)F)ncc2n1C [Example 40, 2-{6-[(E)-2-Cyclopropylvinyl]-3-(ethylsulphonyl)pyridin-2-yl}-3-methyl-6-(trifluoromethyl)-3H-imidazo[4,5-c]pyridine] | – | – | – | – | 100% | – | – | – | chromatographic logP [1, 7]: 3.33; chromatographic logP [1, 8]: 3.24; chromatographic logP [1, 9]: 3.24; pest or weed control at 500 g/ha (Phaedon cochleariae): 100%; kill in % (Myzus persicae [6]): 100%
CCNc1ccc(S(=O)(=O)CC)c(-c2nc3cc(C(F)(F)F)ncc3n2C)n1 [Example 56] | – | – | 100% | 100% | – | 100% | 2.37 | 90% | logP-neutral [1, 11]: 2.35
CCS(=O)(=O)c1ccc(NC(C)=O)nc1-c1nc2cc(C(F)(F)C(F)(F)F)ncc2n1C [Example 62] | 2.54 | 2.47 | 100% | – | 100% | 90% | – | 90% | –
CCS(=O)(=O)c1ccc(N(C)C)nc1-c1nc2cc(C(F)(F)F)ncc2n1C [Example 64] | – | – | 100% | 90% | 100% | – | 2.55 | – | logP-neutral [1, 11]: 2.49
CCS(=O)(=O)c1ccc(NC(=O)C(C)CSC)nc1-c1nc2cc(C(F)(F)F)ncc2n1C (stereo not shown) [Example 65] | 2.94 | 2.78 | 100% | 100% | – | 100% | – | – | –
CCS(=O)(=O)c1ccc(N)nc1-c1nc2cc(C(F)(F)C(F)(F)F)ncc2n1C [Example 67] | 2.14 | 2.14 | 100% | 90% | 100% | – | – | 100% | –
CCS(=O)(=O)c1ccc(N(C)N)nc1-c1nc2cc(C(F)(F)F)ncc2n1C [Example 74] | – | – | 100% | 90% | – | – | 1.96 | 90% | –
